Measured values taken from PubChem BioAssay AID248 (DTP/NCI, 2004).
Toxic doses and inconclusive results are not listed. No stated cut-off is given here; in the data, active means T/C of 150% or more; inactive means T/C below 125%.

Tested on: L1210 leukemia ip in BDF1 mice, survival T/C
Assay: NCI In Vivo Anticancer Drug Screen. Data for tumor model L1210 Leukemia (intraperitoneal) in B6D2F1 (BDF1) mice
Details: endpoint: mean survival time, higher = longer survival
Summary of the method: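 Ratio derived from survival: compound-dosed mice over vehicle-dosed mice, all bearing a transplantable tumor.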

[1] = dose: 100.0 mg/kg/injection, schedule: Q04DX002 (ip), vehicle: Klucel (hydroxypropylcellulose) (HPC)
[2] = dose: 100.0 mg/kg/injection, schedule: Q04DX003 (ip), vehicle: saline with Tween-80
[3] = dose: 200.0 mg/kg/injection, schedule: Q04DX002 (ip), vehicle: Klucel (hydroxypropylcellulose) (HPC)
[4] = dose: 200.0 mg/kg/injection, schedule: Q04DX003 (ip), vehicle: saline with Tween-80
[5] = dose: 100.0 mg/kg/injection, schedule: Q01DX001 (ip), vehicle: saline
[6] = dose: 200.0 mg/kg/injection, schedule: Q01DX001 (ip), vehicle: saline
[7] = dose: 400.0 mg/kg/injection, schedule: Q01DX001 (ip), vehicle: saline
[8] = dose: 100.0 mg/kg/injection, schedule: Q01DX009 (ip), vehicle: Klucel (hydroxypropylcellulose) (HPC)
[9] = dose: 5.0 mg/kg/injection, schedule: Q01DX001 (ip), vehicle: saline
[10] = dose: 10.0 mg/kg/injection, schedule: Q01DX001 (ip), vehicle: saline
[11] = dose: 20.0 mg/kg/injection, schedule: Q01DX001 (ip), vehicle: saline
[12] = dose: 75.0 mg/kg/injection, schedule: Q01DX001 (ip), vehicle: other
[13] = dose: 100.0 mg/kg/injection, schedule: Q04DX003 (ip), vehicle: Klucel (hydroxypropylcellulose) (HPC)
[14] = dose: 50.0 mg/kg/injection, schedule: Q01DX009 (ip), vehicle: saline with Tween-80
[15] = dose: 100.0 mg/kg/injection, schedule: Q01DX009 (ip), vehicle: saline with Tween-80
[16] = dose: 200.0 mg/kg/injection, schedule: Q01DX009 (ip), vehicle: saline with Tween-80

Measured: T/C

COc1cc2c(cc1OC)C1Cc3ccc(OC)c(OC)c3CN1CC2 (stereo not drawn)
inactive: dose: 50.0 mg/kg/injection, schedule: Q04DX003 (ip), vehicle: saline with Tween-80 86 % of control | [1] 87 % of control | [2] 116 % of control | [3] 103 % of control | [4] 94 % of control

O=C(O)CC(O)C(Cl)(Cl)Cl (stereo not drawn)
inactive: [5] 93 % of control | [6] 104 % of control | [7] 98 % of control

CCOC(=O)C(O)(C#CC(C)C)C1CCCC1 (stereo not drawn)
inactive: [5] 107 % of control | [6] 105 % of control | [7] 102 % of control

O=C(O)C(Nc1ccc(Oc2ccc(NC(C(=O)O)c3ccccc3)cc2)cc1)c1ccccc1 (stereo not drawn)
inactive: [1] 100 % of control | [3] 100 % of control | dose: 400.0 mg/kg/injection, schedule: Q04DX002 (ip), vehicle: Klucel (hydroxypropylcellulose) (HPC) 100 % of control

CCCCNC(=S)NCCCC
inactive: [8] 92 % of control | [1] 98 % of control | dose: 200.0 mg/kg/injection, schedule: Q01DX009 (ip), vehicle: Klucel (hydroxypropylcellulose) (HPC) 98 % of control | [3] 104 % of control

COCCOCCOC(=O)C(CO)(CC(CO)(C(C)=O)C(=O)OCCOCCOC)C(C)=O (stereo not drawn)
inactive: dose: 222.0 mg/kg/injection, schedule: Q01DX Z (ip), vehicle: saline 92 % of control | dose: 333.0 mg/kg/injection, schedule: Q01DX Z (ip), vehicle: saline 102 % of control | dose: 500.0 mg/kg/injection, schedule: Q01DX Z (ip), vehicle: saline 107 % of control

Cc1c(CCO)sc[n+]1Cc1ccccc1[N+](=O)[O-]
inactive: [9] 102 % of control | [10] 100 % of control | [11] 102 % of control | dose: 40.0 mg/kg/injection, schedule: Q01DX001 (ip), vehicle: saline 105 % of control | dose: 80.0 mg/kg/injection, schedule: Q01DX001 (ip), vehicle: saline 98 % of control | [5] 93 % of control

Cc1cc[n+](Cc2ccccc2Cl)cc1
inactive: dose: 6.25 mg/kg/injection, schedule: Q01DX009 (ip), vehicle: saline 97 % of control | dose: 6.25 mg/kg/injection, schedule: Q04DX003 (ip), vehicle: saline 96 % of control | dose: 12.5 mg/kg/injection, schedule: Q01DX009 (ip), vehicle: saline 97 % of control | dose: 12.5 mg/kg/injection, schedule: Q04DX003 (ip), vehicle: saline 107 % of control | dose: 25.0 mg/kg/injection, schedule: Q01DX009 (ip), vehicle: saline 100 % of control | dose: 25.0 mg/kg/injection, schedule: Q04DX003 (ip), vehicle: saline 89 % of control

c1nc(SCC2CO2)c2ncn(CC3CO3)c2n1 (stereo not drawn)
inactive: [5] 107 % of control | [6] 101 % of control | [7] 97 % of control

CCCCCCCCCCCC(=O)Nc1ccc(S(=O)(=O)NNc2ccccc2)cc1[N+](=O)[O-]
inactive: [8] 95 % of control | dose: 100.0 mg/kg/injection, schedule: Q04DX003 (ip), vehicle: alcohol 94 % of control | dose: 200.0 mg/kg/injection, schedule: Q04DX003 (ip), vehicle: alcohol 95 % of control | dose: 400.0 mg/kg/injection, schedule: Q04DX003 (ip), vehicle: alcohol 90 % of control

CCNCc1cc(Nc2cc(C)nc(/N=C(\N)Nc3ccc(Cl)c(Cl)c3)n2)ccc1OC
inactive: dose: 3.12 mg/kg/injection, schedule: Q01DX009 (ip), vehicle: Klucel (hydroxypropylcellulose) (HPC) 94 % of control | dose: 6.25 mg/kg/injection, schedule: Q01DX009 (ip), vehicle: Klucel (hydroxypropylcellulose) (HPC) 103 % of control | dose: 12.5 mg/kg/injection, schedule: Q01DX009 (ip), vehicle: Klucel (hydroxypropylcellulose) (HPC) 97 % of control | dose: 25.0 mg/kg/injection, schedule: Q04DX003 (ip), vehicle: Klucel (hydroxypropylcellulose) (HPC) 101 % of control | dose: 50.0 mg/kg/injection, schedule: Q04DX003 (ip), vehicle: Klucel (hydroxypropylcellulose) (HPC) 111 % of control | [12] 97 % of control | [13] 95 % of control

CP1(=S)CCC(=O)CC1
inactive: dose: 100.0 mg/kg/injection, schedule: Q04DX002 (ip), vehicle: saline with Tween-80 91 % of control | dose: 200.0 mg/kg/injection, schedule: Q04DX002 (ip), vehicle: saline with Tween-80 95 % of control | dose: 400.0 mg/kg/injection, schedule: Q04DX002 (ip), vehicle: saline with Tween-80 98 % of control

O=C(CBr)c1ccncc1
inactive: [9] 103 % of control | [10] 103 % of control | [11] 94 % of control

CC(C#N)(Cc1ccccc1)Nc1ccccc1 (stereo not drawn)
inactive: [14] 102 % of control | [15] 101 % of control | [16] 96 % of control

CC(C)CCNNCCC(C)C
inactive: [12] 108 % of control | dose: 150.0 mg/kg/injection, schedule: Q01DX001 (ip), vehicle: other 104 % of control

Nc1nc(Cl)c(C=O)c(Cl)n1
inactive: dose: 25.0 mg/kg/injection, schedule: Q01DX001 (ip), vehicle: carboxymethylcellulose (CMC) 97 % of control | dose: 50.0 mg/kg/injection, schedule: Q01DX001 (ip), vehicle: carboxymethylcellulose (CMC) 97 % of control | dose: 100.0 mg/kg/injection, schedule: Q01DX001 (ip), vehicle: carboxymethylcellulose (CMC) 94 % of control | dose: 200.0 mg/kg/injection, schedule: Q01DX001 (ip), vehicle: carboxymethylcellulose (CMC) 103 % of control

CS(=O)(=O)OCCN(CCOS(C)(=O)=O)c1ccc(C=Nc2cccc(Br)c2)c(Cl)c1
inactive: [13] 111 % of control | dose: 200.0 mg/kg/injection, schedule: Q04DX003 (ip), vehicle: Klucel (hydroxypropylcellulose) (HPC) 111 % of control | dose: 400.0 mg/kg/injection, schedule: Q04DX003 (ip), vehicle: Klucel (hydroxypropylcellulose) (HPC) 120 % of control

CC(C)=CCC/C(C)=C/COC(=O)Cc1ccccc1
inactive: [15] 103 % of control | [2] 97 % of control | [16] 110 % of control | [4] 98 % of control | dose: 400.0 mg/kg/injection, schedule: Q01DX009 (ip), vehicle: saline with Tween-80 103 % of control | dose: 400.0 mg/kg/injection, schedule: Q04DX003 (ip), vehicle: saline with Tween-80 103 % of control

COc1cc(C)c2cc(C)cc(C)c2n1
inactive: dose: 100.0 mg/kg/injection, schedule: Q01DX001 (ip), vehicle: other 95 % of control | dose: 200.0 mg/kg/injection, schedule: Q01DX001 (ip), vehicle: other 101 % of control | dose: 400.0 mg/kg/injection, schedule: Q01DX001 (ip), vehicle: other 93 % of control

COc1nc2ccccc2n1C1OC(CO)C(O)C1O (stereo not drawn)
inactive: [5] 97 % of control | [6] 100 % of control | [7] 105 % of control

ClCC1COCO1 (stereo not drawn)
inactive: dose: 12.5 mg/kg/injection, schedule: Q01DX009 (ip), vehicle: saline with Tween-80 107 % of control | dose: 25.0 mg/kg/injection, schedule: Q01DX009 (ip), vehicle: saline with Tween-80 102 % of control | [14] 106 % of control

O=C(O)CC(Sc1ccccc1)C(=O)O (stereo not drawn)
inactive: dose: 100.0 mg/kg/injection, schedule: Q04DX002 (ip), vehicle: saline + alcohol 99 % of control | dose: 200.0 mg/kg/injection, schedule: Q04DX002 (ip), vehicle: saline + alcohol 102 % of control | dose: 400.0 mg/kg/injection, schedule: Q04DX002 (ip), vehicle: saline + alcohol 99 % of control

CC(=O)COc1ccc([N+](=O)[O-])cc1
inactive: dose: 100.0 mg/kg/injection, schedule: Q01DX001 (ip), vehicle: saline with Tween-80 100 % of control | dose: 200.0 mg/kg/injection, schedule: Q01DX001 (ip), vehicle: saline with Tween-80 102 % of control | dose: 400.0 mg/kg/injection, schedule: Q01DX001 (ip), vehicle: saline with Tween-80 98 % of control
